Results from patent publication US11395857B2, “Radiolabeled melanocortin 1 receptor-specific alpha-melanocyte-stimulating hormone analogues for imaging or therapy” (PROVINCIAL HEALTH SERVICES AUTHORITY, priority 2018, dated 2022).
Where two headings read alike, the source gives them in different places.

How the values were obtained:
B16F10 mouse melanoma = test: Biodistribution of 177Lu-labeled αMSH analogues in mice bearing B16F10 mouse melanoma; format: in vivo, C57BL/6J mice; details: C57BL/6J mice, B16F10 melanoma
Experimental: (§1) The B16-F10 mouse melanoma cells were cultured and inoculated in mice as described in Example 1.
(§2) For biodistribution studies, approximately 1-2 MBq of ^177Lu-labeled αMSH analogues via tail vein under anesthesia. At 1, 4, 24, and 120 h p.i., the mice were euthanized by CO2 inhalation. Organs/tissues were harvested and the radioactivity was measured as described in Example 1.

[1] = as above; format: in vivo, C57BL/6J mice; details: mouse, iv, total radioactivity, C57BL/6J mice, B16F10 melanoma
Experimental: as §1, §2

## CCCC[C@H](NC(=O)CN1CCC(NC(=O)[C@H](CCCCNC(=O)CN2CCN(CC(=O)O)CCN(CC(=O)O)CCN(CC(=O)O)CC2)NC(=O)[C@H](CCC(=O)O)NC(=O)CCCc2ccc(I)cc2)CC1)C(=O)N[C@H]1CC(=O)NCCCC[C@@H](C(N)=O)NC(=O)[C@H](Cc2c[nH]c3ccccc23)NC(=O)[C@H](CCCNC(=N)N)NC(=O)[C@@H](Cc2ccccc2)NC(=O)[C@H](Cc2c[nH]cn2)NC1=O [^177Lu-labeled CCZ01082, metal not drawn]
B16F10 mouse melanoma; 1 h p.i.
  Biodistribution, B16F10 tumour: 13.3 ± 3.34 % ID/g
B16F10 mouse melanoma; 4 h p.i.
  Biodistribution, B16F10 tumour: 20.8 ± 5.37 % ID/g
B16F10 mouse melanoma; 24 h p.i.
  Biodistribution, B16F10 tumour: 7.59 ± 1.70 % ID/g
B16F10 mouse melanoma; 120 h p.i.
  Biodistribution, B16F10 tumour: 0.79 ± 0.39 % ID/g
[1]; male, seminal glands, 1 h p.i., read-out: Biodistribution, Seminal glands
  tissue uptake at 1 h: 0.48 ± 0.13 %ID/g
[1]; male, seminal glands, 4 h p.i., read-out: Biodistribution, Seminal glands
  tissue uptake at 4 h: 0.32 ± 0.15 %ID/g
[1]; male, seminal glands, 24 h p.i., read-out: Biodistribution, Seminal glands
  tissue uptake at 24 h: 0.1 ± 0.04 %ID/g
[1]; male, seminal glands, 120 h p.i., read-out: Biodistribution, Seminal glands
  tissue uptake at 120 h: 0.04 ± 0.02 %ID/g
[1]; male, testes, 1 h p.i., read-out: Biodistribution, Testes
  tissue uptake at 1 h: 1.3 ± 0.4 %ID/g
[1]; male, testes, 4 h p.i., read-out: Biodistribution, Testes
  tissue uptake at 4 h: 0.75 ± 0.26 %ID/g
[1]; male, testes, 24 h p.i., read-out: Biodistribution, Testes
  tissue uptake at 24 h: 0.32 ± 0.17 %ID/g
[1]; male, testes, 120 h p.i., read-out: Biodistribution, Testes
  tissue uptake at 120 h: 0.2 ± 0.11 %ID/g
[1]; adrenal glands, 1 h p.i., read-out: Biodistribution, Adrenal glands
  tissue uptake at 1 h: 2.62 ± 1.48 %ID/g
[1]; adrenal glands, 4 h p.i., read-out: Biodistribution, Adrenal glands
  tissue uptake at 4 h: 1.31 ± 0.56 %ID/g
[1]; adrenal glands, 24 h p.i., read-out: Biodistribution, Adrenal glands
  tissue uptake at 24 h: 0.41 ± 0.35 %ID/g
[1]; adrenal glands, 120 h p.i., read-out: Biodistribution, Adrenal glands
  tissue uptake at 120 h: 0.33 ± 0.23 %ID/g
[1]; blood, 1 h p.i., read-out: Biodistribution, Blood
  tissue uptake at 1 h: 8.32 ± 2.74 %ID/g
[1]; blood, 4 h p.i., read-out: Biodistribution, Blood
  tissue uptake at 4 h: 2.82 ± 1.17 %ID/g
[1]; blood, 24 h p.i., read-out: Biodistribution, Blood
  tissue uptake at 24 h: 0.33 ± 0.57 %ID/g
[1]; blood, 120 h p.i., read-out: Biodistribution, Blood
  tissue uptake at 120 h: 0.03 ± 0.04 %ID/g
[1]; bone, 1 h p.i., read-out: Biodistribution, Bone
  tissue uptake at 1 h: 0.84 ± 0.19 %ID/g
[1]; bone, 4 h p.i., read-out: Biodistribution, Bone
  tissue uptake at 4 h: 0.51 ± 0.11 %ID/g
[1]; bone, 24 h p.i., read-out: Biodistribution, Bone
  tissue uptake at 24 h: 0.31 ± 0.08 %ID/g
[1]; bone, 120 h p.i., read-out: Biodistribution, Bone
  tissue uptake at 120 h: 0.17 ± 0.07 %ID/g
[1]; brain, 1 h p.i., read-out: Biodistribution, Brain
  tissue uptake at 1 h: 0.13 ± 0.03 %ID/g
[1]; brain, 4 h p.i., read-out: Biodistribution, Brain
  tissue uptake at 4 h: 0.06 ± 0.02 %ID/g
[1]; brain, 24 h p.i., read-out: Biodistribution, Brain
  tissue uptake at 24 h: 0.01 ± 0.02 %ID/g
[1]; brain, 120 h p.i., read-out: Biodistribution, Brain
  tissue uptake at 120 h: 0.01 ± 0.01 %ID/g
[1]; fat, 1 h p.i., read-out: Biodistribution, Fat
  tissue uptake at 1 h: 0.61 ± 0.23 %ID/g
[1]; fat, 4 h p.i., read-out: Biodistribution, Fat
  tissue uptake at 4 h: 0.39 ± 0.12 %ID/g
[1]; fat, 24 h p.i., read-out: Biodistribution, Fat
  tissue uptake at 24 h: 0.1 ± 0.13 %ID/g
[1]; fat, 120 h p.i., read-out: Biodistribution, Fat
  tissue uptake at 120 h: 0.05 ± 0.05 %ID/g
[1]; heart, 1 h p.i., read-out: Biodistribution, Heart
  tissue uptake at 1 h: 2.03 ± 0.68 %ID/g
[1]; heart, 4 h p.i., read-out: Biodistribution, Heart
  tissue uptake at 4 h: 0.8 ± 0.32 %ID/g
[1]; heart, 24 h p.i., read-out: Biodistribution, Heart
  tissue uptake at 24 h: 0.18 ± 0.17 %ID/g
[1]; heart, 120 h p.i., read-out: Biodistribution, Heart
  tissue uptake at 120 h: 0.09 ± 0.04 %ID/g
[1]; intestine, 1 h p.i., read-out: Biodistribution, Intestine
  tissue uptake at 1 h: 1.34 ± 0.28 %ID/g
[1]; intestine, 4 h p.i., read-out: Biodistribution, Intestine
  tissue uptake at 4 h: 2.91 ± 4.94 %ID/g
[1]; intestine, 24 h p.i., read-out: Biodistribution, Intestine
  tissue uptake at 24 h: 0.43 ± 0.32 %ID/g
[1]; intestine, 120 h p.i., read-out: Biodistribution, Intestine
  tissue uptake at 120 h: 0.08 ± 0.07 %ID/g
[1]; kidneys, 1 h p.i., read-out: Biodistribution, Kidneys
  tissue uptake at 1 h: 11.7 ± 5.52 %ID/g
[1]; kidneys, 4 h p.i., read-out: Biodistribution, Kidneys
  tissue uptake at 4 h: 11.6 ± 5.03 %ID/g
[1]; kidneys, 24 h p.i., read-out: Biodistribution, Kidneys
  tissue uptake at 24 h: 8.63 ± 6.4 %ID/g
[1]; kidneys, 120 h p.i., read-out: Biodistribution, Kidneys
  tissue uptake at 120 h: 1.98 ± 0.72 %ID/g
[1]; liver, 1 h p.i., read-out: Biodistribution, Liver
  tissue uptake at 1 h: 3.45 ± 0.31 %ID/g
[1]; liver, 4 h p.i., read-out: Biodistribution, Liver
  tissue uptake at 4 h: 3.83 ± 0.28 %ID/g
[1]; liver, 24 h p.i., read-out: Biodistribution, Liver
  tissue uptake at 24 h: 2.41 ± 0.34 %ID/g
[1]; liver, 120 h p.i., read-out: Biodistribution, Liver
  tissue uptake at 120 h: 0.9 ± 0.12 %ID/g
[1]; lungs, 1 h p.i., read-out: Biodistribution, Lungs
  tissue uptake at 1 h: 5.11 ± 2.81 %ID/g
[1]; lungs, 4 h p.i., read-out: Biodistribution, Lungs
  tissue uptake at 4 h: 2.46 ± 0.54 %ID/g
[1]; lungs, 24 h p.i., read-out: Biodistribution, Lungs
  tissue uptake at 24 h: 0.42 ± 0.34 %ID/g
[1]; lungs, 120 h p.i., read-out: Biodistribution, Lungs
  tissue uptake at 120 h: 0.54 ± 0.87 %ID/g
[1]; muscle, 1 h p.i., read-out: Biodistribution, Muscle
  tissue uptake at 1 h: 0.79 ± 0.22 %ID/g
[1]; muscle, 4 h p.i., read-out: Biodistribution, Muscle
  tissue uptake at 4 h: 0.39 ± 0.1 %ID/g
[1]; muscle, 24 h p.i., read-out: Biodistribution, Muscle
  tissue uptake at 24 h: 0.06 ± 0.05 %ID/g
[1]; muscle, 120 h p.i., read-out: Biodistribution, Muscle
  tissue uptake at 120 h: 0.03 ± 0.02 %ID/g
[1]; pancreas, 1 h p.i., read-out: Biodistribution, Pancreas
  tissue uptake at 1 h: 1.14 ± 0.32 %ID/g
[1]; pancreas, 4 h p.i., read-out: Biodistribution, Pancreas
  tissue uptake at 4 h: 0.52 ± 0.27 %ID/g
[1]; pancreas, 24 h p.i., read-out: Biodistribution, Pancreas
  tissue uptake at 24 h: 0.17 ± 0.19 %ID/g
[1]; pancreas, 120 h p.i., read-out: Biodistribution, Pancreas
  tissue uptake at 120 h: 0.09 ± 0.05 %ID/g
[1]; spleen, 1 h p.i., read-out: Biodistribution, Spleen
  tissue uptake at 1 h: 2.1 ± 1.03 %ID/g
[1]; spleen, 4 h p.i., read-out: Biodistribution, Spleen
  tissue uptake at 4 h: 1.46 ± 0.67 %ID/g
[1]; spleen, 24 h p.i., read-out: Biodistribution, Spleen
  tissue uptake at 24 h: 1.05 ± 0.45 %ID/g
[1]; spleen, 120 h p.i., read-out: Biodistribution, Spleen
  tissue uptake at 120 h: 0.65 ± 0.34 %ID/g
[1]; stomach, 1 h p.i., read-out: Biodistribution, Stomach
  tissue uptake at 1 h: 0.89 ± 0.5 %ID/g
[1]; stomach, 4 h p.i., read-out: Biodistribution, Stomach
  tissue uptake at 4 h: 1.65 ± 2.22 %ID/g
[1]; stomach, 24 h p.i., read-out: Biodistribution, Stomach
  tissue uptake at 24 h: 1.17 ± 0.77 %ID/g
[1]; stomach, 120 h p.i., read-out: Biodistribution, Stomach
  tissue uptake at 120 h: 0.19 ± 0.21 %ID/g
[1]; thyroid, 1 h p.i., read-out: Biodistribution, Thyroid
  tissue uptake at 1 h: 3.41 ± 0.51 %ID/g
[1]; thyroid, 4 h p.i., read-out: Biodistribution, Thyroid
  tissue uptake at 4 h: 3.86 ± 0.39 %ID/g
[1]; thyroid, 24 h p.i., read-out: Biodistribution, Thyroid
  tissue uptake at 24 h: 4.03 ± 1.33 %ID/g
[1]; thyroid, 120 h p.i., read-out: Biodistribution, Thyroid
  tissue uptake at 120 h: 0.86 ± 0.31 %ID/g
[1]; tumour/blood, 1 h p.i., read-out: Tumour/blood
  tissue to tissue ratio at 1 h: 1.82 ± 0.82
[1]; tumour/blood, 4 h p.i., read-out: Tumour/blood
  tissue to tissue ratio at 4 h: 8.59 ± 4.19
[1]; tumour/blood, 24 h p.i., read-out: Tumour/blood
  tissue to tissue ratio at 24 h: 87.6 ± 47.8
[1]; tumour/blood, 120 h p.i., read-out: Tumour/blood
  tissue to tissue ratio at 120 h: 52.9 ± 41.3
[1]; tumour/kidney, 1 h p.i., read-out: Tumour/kidney
  tissue to tissue ratio at 1 h: 1.41 ± 0.71
[1]; tumour/kidney, 4 h p.i., read-out: Tumour/kidney
  tissue to tissue ratio at 4 h: 2.05 ± 0.86
[1]; tumour/kidney, 24 h p.i., read-out: Tumour/kidney
  tissue to tissue ratio at 24 h: 1.14 ± 0.5
[1]; tumour/kidney, 120 h p.i., read-out: Tumour/kidney
  tissue to tissue ratio at 120 h: 0.42 ± 0.18
[1]; tumour/muscle, 1 h p.i., read-out: Tumour/muscle
  tissue to tissue ratio at 1 h: 18.7 ± 8.13
[1]; tumour/muscle, 4 h p.i., read-out: Tumour/muscle
  tissue to tissue ratio at 4 h: 57.7 ± 22.4
[1]; tumour/muscle, 24 h p.i., read-out: Tumour/muscle
  tissue to tissue ratio at 24 h: 167 ± 88.7
[1]; tumour/muscle, 120 h p.i., read-out: Tumour/muscle
  tissue to tissue ratio at 120 h: 38.9 ± 24
[1]; urine, 1 h p.i.
  excreta dose per gram or mL at 1 h: 87.9 ± 48.2 %ID/g
[1]; urine, 4 h p.i.
  excreta dose per gram or mL at 4 h: 113 ± 29.4 %ID/g
[1]; urine, 24 h p.i.
  excreta dose per gram or mL at 24 h: 6.11 ± 1.66 %ID/g
[1]; urine, 120 h p.i.
  excreta dose per gram or mL at 120 h: 1.21 ± 0.21 %ID/g
